According to patent US20020148006A1, “Transgenic plants with modified sterol compositions” (Asgrow Seed Company, L.L.C., priority 1996, published 2002):

Legend:
[1] = tested on: (S)-adenosyl-L-methionine: Δ^24-sterol methyl transferase (SMT); test: Sterol specificity (substrate methylation) of SMT enzyme from 4-day corn seedlings; type: biochemical, Zea mays (corn); conditions: for Enzyme Activity: soluble SMT from corn seedlings, BG = background; for % Activity, relative to cycloartenol methylation: soluble SMT
Description: The sterol specificity of the microsome-bound and soluble SMT enzyme from 4-day corn seedlings was determined in order to elucidate the enzymatic basis for the plant sterols identified in Example 1.

Arabidopsis SMT = target: T1, Arabidopsis SMT (Arabidopsis thaliana, UniProt Q39227); test: Sterol transformation by recombinant Arabidopsis SMT expressed in E. coli; type: biochemical; conditions: recombinant fusion protein
T1 construct: The full-length ORF containing a Nde 1 site at the start; His-tag; made in house; host or cells: E. coli, pET23a(+)
T1 sequence (Q39227 1-361): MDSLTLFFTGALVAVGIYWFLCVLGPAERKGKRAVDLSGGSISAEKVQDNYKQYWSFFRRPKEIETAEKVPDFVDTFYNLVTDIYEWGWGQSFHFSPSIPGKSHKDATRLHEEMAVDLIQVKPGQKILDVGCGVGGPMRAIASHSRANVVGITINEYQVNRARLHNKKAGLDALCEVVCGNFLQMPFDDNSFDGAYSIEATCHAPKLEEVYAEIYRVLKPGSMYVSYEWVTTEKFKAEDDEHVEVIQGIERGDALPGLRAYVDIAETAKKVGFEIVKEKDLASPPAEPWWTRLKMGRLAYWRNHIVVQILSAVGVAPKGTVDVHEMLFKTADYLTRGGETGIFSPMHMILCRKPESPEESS
From the text: The SMT gene from Arabidopsis was cloned and sequenced (FIG. 6; SEQ ID NO:3). This gene containing a His-tag was overexpressed in E. coli (Tong et al., 1997). Arabidopsis SMT was partially purified and characterized in stereochemical detail.
The Arabidopsis SMT gene was amplified by PCR from a cDNA library. The primers used were designed from the full-length cDNA sequence retrieved from the GeneBank (Accession number X89867). The amplified product was the full-length Arabidopsis SMT gene which was sub-cloned into a T/A cloning vector and sequenced. From the sequence data the ORF was identified. A Nde I site was created at the ATG start codon through PCR mediated site-directed mutagenesis. The full-length ORF containing a Nde 1 site at the start and a BamH I site at the stop was cloned into the pET23a(+) vector just as the ERG6 gene was in Example 4. […] In the case of cycloartenol only one product was formed, which is 24(28)-methylene cycloartanol, i.e., SMTI in FIG. 4. Since a single gene product was able to metabolize both sterol substrates it further confirms the enzymological data in Example 3.

SMT = test: Substrate preference of SMT in microsome preparations of P. wickerhamii; type: biochemical, Prototheca wickerhamii
From the text: However, the preferred product is not 24(28)-methylene cycloartenol but cyclolaudenol (VII) which is a Δ^25(27)-24-alkyl sterol, a nonutilizable sterol.

Heliothis zea = test: Sterol utilization and metabolism by Heliothis zea reared on artificial diet with sterol supplement; conditions: for Utilization by H. zea / support of larval growth and development (words): test sterol as sole added dietary sterol
Description: Heliothis zea (corn earworm) was reared on an artificial diet treated with different sterol supplements to study the relation between sterol structure and utilization in insects. H. zea eggs were used to establish a disease-free stock colony.
The stock insects were reared using sterile procedures on a pinto bean-based diet. Moths were fed 10% sucrose. Cultures were maintained at 27±1° C., at 40±10% relative humidity on a 14:10 light-dark photoperiod and an artificial diet was used to rear the insects on different sterol supplements. The experimental diet contained agar, which is known to contain trace contamination of cholesterol, otherwise the experimental diet was sterol-free.
Sterols were solubilized in acetone. Aliquots of the solutions were added to the sterol-free diet in a mortar, the material mixed thoroughly with the diet, and the organic solvent allowed to evaporate. Sterols were supplied to the medium at 200 ppm (equivalent to 1 mg of sterol per experimental vessel containing one insect).
By day 20, H. zea larva are in the final stage of larval development (sixth instar), after which the insects may pupate. A single neonate larva was placed in an experimental culture vial and allowed to grow for 20 days. The fresh weight, length and instar stage of 20-day larva were recorded.
In some treatments, the larvae were allowed to grow for another 4 days to determine whether they could pupate properly and develop into moth forms.
These fatty alcohols may comigrate with sterols during some forms of chromatography and interfere with sterol quantitation, particularly of cholesterol. Therefore, in order to confirm the identity and amount of cholesterol in the insect an aliquot of the NSF was injected into a HPLC column and the fraction corresponding to cholesterol was examined by GC-MS.

[2] = tested on: serum and/or plasma total cholesterol and low density lipoprotein (LDL) cholesterol; conditions: comparison of phytosterol structures; cited from earlier work

Structure (SMILES)	Vmax ([1]; first transmethylation) [pmol/min/mg protein]	Substrate quality for corn SMT ([1]; microsome-bound enzyme system)	Enzyme Activity ([1]; substrates marked (C1), first methyl transfer)	% Activity, relative to cycloartenol methylation ([1]; (C1), first methyl transfer)	Substrate quality for corn SMT ([1]; soluble enzyme)	Transformation by recombinant Arabidopsis SMT (Arabidopsis SMT)	Substrate preference of P. wickerhamii SMT (SMT)	Instar reached by day 20 (Heliothis zea; Table 11, sterol 200 ppm in diet)	Growth response (Heliothis zea; Table 11, sterol 200 ppm in diet, 20-day larvae, relative to growth on cholesterol normalized to 100%) [%]	Utilization by H. zea / support of larval growth and development (words) (Heliothis zea)	Utilization by H. zea / support of larval growth and development (words) (Heliothis zea; listed as cycloartenol)	Vmax ([1]; second transmethylation) [pmol/min/mg protein]	Enzyme Activity ([1]; substrates marked (C2), second methyl transfer)	% Activity, relative to cycloartenol methylation ([1]; (C2), second methyl transfer)	Km ([1]; sterol substrate of the second transmethylation, read-out: Km) [µM]	Reduction of cholesterol levels [2]
CC(C)=CCC[C@@H](C)[C@H]1CC[C@@]2(C)[C@@H]3CC[C@H]4C(C)(C)[C@@H](O)CC[C@@]45C[C@@]35CC[C@]12C [Cycloartenol, cycloartenol]	4	preferred sterol acceptor	37,515 dpm/min	100 (C1) %	preferred substrate for the first methylation reaction	active in transforming both cycloartenol and 24(28)-methylene lophenol to their respective alkyl products	preferred substrate	3	5	inhibit insect growth	could not be met satisfactorily					
C=C(CC[C@@H](C)[C@H]1CC[C@H]2C3=CCC4C(C)C(O)CC[C@]4(C)[C@H]3CC[C@]12C)C(C)C (stereo partly drawn) [24(28)-Methylenelophenol]					preferred sterol substrate for the second methylation reaction	active in transforming both cycloartenol and 24(28)-methylene lophenol to their respective alkyl products						1	3,800 dpm/min	10 (C2) %	11	
CC[C@H](CC[C@@H](C)[C@H]1CC[C@H]2[C@@H]3CC[C@H]4C[C@@H](O)CC[C@]4(C)[C@H]3CC[C@]12C)C(C)C [sitostanol]																more efficient compared to unsaturated compounds such as sitosterol in reducing cholesterol levels
